This passage reports IC50 results from BindingDB's records for doi:10.1021/jm058033i (University of Regensburg, 2006).

Assay [1] is described as follows: Inhibition of DNA synthesis in IL3 dependent FDC-P1 cells expressing wild-type KIT.
The nature of assay [2]: Inhibition of DNA synthesis in IL3 dependent FDC-P1 cells expressing KIT V558D mutant.
Assay [3] can be described thus: Antiproliferative activity against mouse 32Dcl3 cell line expressing FLT3-ITD.
Assay [4] in a line: Antiproliferative activity against mouse 32Dcl3 cell line expressing wild-type FLT3.

The IC50 is the concentration that gives 50% inhibition. Read a high IC50 as weaker potency. For `Cc1cccc2[nH]c(C(=O)c3cc4cc(O)ccc4[nH]3)cc12` [(5-Hydroxy-1H-indol-2-yl)-(4-methyl-1H-indol-2-yl)-methanone], the IC50 in assay [1] and in assay [2] was 500 nM in each case.

Consider `O=C(c1cc2cc(O)ccc2[nH]1)c1cc2cc(O)ccc2[nH]1` [Bis-(5-hydroxy-1H-indol-2-yl)-methanone], for which the IC50 turned out to be 100 nM in assay [3], 100 nM in assay [4], 500 nM in assay [1] and 500 nM in assay [2].
